Read-outs that look alike come from different tables or passages of the source.
How the values were obtained:
Human opiate κ receptors [1] = biological target: T1, Human opiate κ receptors (Homo sapiens, UniProt P41145); assay: κ opioid receptor functional assay, [35S]GTPγS binding (assay C); format: biochemical; settings: for activation at 1 µM: 0.5 h, read-out: % activation functional assay at 1 μM
[2] = test system: arachidonic acid-induced ear inflammation; format: in vivo, mice
[3] = test system: chloroquine-induced scratching; assay: Effects on chloroquine-induced scratching (assay L); format: in vivo; settings: intrathecal injection, mice
Experimental: L. Effects on Chloroquine-Induced Scratching
Compounds are intrathecally injected in a volume of 5 μl, 10 min before the i.d. injection of chloroquine (100 μg/10 μl) in the rostral back. Following the i.d. cheek injection, mice are placed in an arena with a clear glass floor and videotaped from beneath for 30 min. Videotapes are reviewed by blinded investigators, who count the number of hindlimb scratch bouts.

[4] = test system: oxazolone delayed type hypersensitivity reaction; assay: In vivo model for pruritus associated with the oxazolone model of a delayed type hypersensitivity reaction (assay D); parameters: species or system mice
Experimental: D. In Vivo Model for Pruritus Associated with the Oxazolone Model of a Delayed Type Hypersensitivity Reaction
Scratching activity in mice is measured after topical application of the test compound.

[5] = test system: chronic oxazolone-induced ear inflammation; assay: In vivo model of chronic oxazolone-induced ear inflammation (assay E); parameters: species or system mice
Experimental: E. In Vivo Model of Chronic Oxazolone-Induced Ear Inflammation
Mice are challenged several times with oxazolone following an initial sensitization. Ear thickness is measured daily during the treatment period with topical application of the test compound (see e.g. Ottosen E. R. J. Med. Chem. 2003; 46: 5651-5662). At the end of the study ear weight is determined Ears are characterized histologically and by immunofluorescence. Gene expression was quantified (RT-qPCR).

[6] = test system: acetic acid-induced writhing; assay: Acetic acid-induced writhing assay in mice (assay G); format: in vivo; settings: s.c.
Experimental: G. Acetic Acid-Induced Writhing Assay in Mice
Analgesic activity against visceral or chemical pain is assessed by application of the test compound prior to application of an i.p. injection of acetic acid. The number of writhing responses that occur in response to acetic acid are counted (see e.g. Barber A. Med. Res. Rev. 1992; 12:525-62 and Ramabadran K. Pharm. Res. 1986,3:263-270).

[7] = test system: UVB-induced inflammatory pain; assay: UVB-induced inflammatory pain in rats (assay H); format: in vivo, Sprague-Dawley rats; settings: s.c.
Experimental: H. UVB-Induced Inflammatory Pain In Rats
Male, Sprague-Dawley rats receive a single exposure of UVB radiation to the left hind paw. Mechanical hyperalgesia is assessed using a digital Randall-Selitto device (dRS). Thermal hyperalgesia is measured using a plantar test apparatus (see e.g. Davies S. L. J. Neurosci. Methods 2005; 148:161-166, Bishop T. Pain 2007; 131:70-82 and Graham I. J. Invest. Dermatol. 2004; 122:183-189).

vasculitis = assay: Vasculitis model in mice, LPS/TNF-α (assay I); format: in vivo, C57BL/6 mice; settings: dose dependent
Experimental: I. Vasculitis Model in Mice
C57BL/6 mice receive an intradermal injection of LPS. On the following day vasculitis is induced by intradermal injection of TNF-α. In addition Evan's blue is injected. 24 hours following the injection of TNF-α mice are scarified. Ear thickness is measured and the degree of vasculitis is assessed by counting petechiae. The content of Evan's blue in the ear tissue is a marker for vascular permeability. Ears are analyzed by histology, FACS and RT-qPCR.

[8] = test system: Imiquimod-induced psoriasis; assay: Imiquimod-induced psoriasis in mice (assay J); format: in vivo, Balb/c mice; settings: s.c. or i.v.
Experimental: J. Imiquimod-Induced Psoriasis in Mice
Psoriasis in Balb/c mice is induced by daily application of topical Imiquimod for 8 days. Animal are treated with the test items (topical or systemically). Scratching was monitored. On day 9 the skin phenotype is characterized. Skin is analyzed histologically. Lymph nodes are analyzed by flow cytometry and RT-qPCR.

DSS-induced colitis = DSS-induced colitis in mice (assay K); format: in vivo, C57BL/6 mice
Experimental: K. DSS-Induced Colitis in Mice
Colitis is induced by treatment of C57BL/6 mice with 2.5% dextran sulfate (DSS) in the drinking water for 7 days. Mice are treated with the test item. Weight is monitored daily. At day 8 mice are scarified. A haemocult test is performed. The size of the colon is measured. Colitis is determined using a scoring system in H&E stains.

Human opiate κ receptors [9] = biological target: T1, Human opiate κ receptors; format: binding; parameters: expressed in transfected cells; host or cells: HEK-293 cell membranes
[10] = topical, versus vehicle control

T1 sequence (P41145 whole entry): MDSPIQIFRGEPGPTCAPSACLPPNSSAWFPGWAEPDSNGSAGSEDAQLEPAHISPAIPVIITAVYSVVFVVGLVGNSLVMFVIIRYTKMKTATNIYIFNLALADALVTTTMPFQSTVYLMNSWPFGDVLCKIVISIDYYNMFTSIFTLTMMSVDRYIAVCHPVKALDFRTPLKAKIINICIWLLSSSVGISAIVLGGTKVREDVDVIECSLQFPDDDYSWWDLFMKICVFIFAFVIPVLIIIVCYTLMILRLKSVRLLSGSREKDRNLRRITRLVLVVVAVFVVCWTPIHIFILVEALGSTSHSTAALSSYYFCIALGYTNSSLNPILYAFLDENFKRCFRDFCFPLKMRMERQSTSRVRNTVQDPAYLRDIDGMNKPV

COC(=O)c1ccc(C(=O)N2CCN(C(=O)Cc3ccc(Cl)c(Cl)c3)C3C(N4CCCC4)CCCC32)cc1 (racemic) [Example 81]
activation at 1 µM (Human opiate κ receptors [1]): 102% | increase in ear thickness [2, 10]: dose dependently prevented the increase | chloroquine-evoked scratching [3]: significantly inhibited

COC(=O)N1CCN(C(=O)Cc2ccc(Cl)c(Cl)c2)[C@@H]2[C@@H](N3CCCC3)CCC[C@@H]21 [Example 89, (4aR,5S,8aS)-methyl 4-(2-(3,4-dichlorophenyl)acetyl)-5-(pyrrolidin-1-yl)octahydroquinoxaline-1(2H)-carboxylate]
% activation functional assay at 1 μM (Human opiate κ receptors [1]): 100% | activation at 1 µM (Human opiate κ receptors [1]): 107% | number of scratch events ([4]; mice, topical): significantly reduced | ear thickness ([4]; mice, topical, compared to vehicle treated animals): accelerated decrease | epidermal thickness, inflammatory infiltrate and epidermal oedema (histology) ([4]; semi-quantitative analysis): reduction | inflammatory infiltrate (CD117+ mast cells and Gr-1+ neutrophils) ([5]; immunohistochemistry): dose dependent reduction | ear thickness ([5]; mice, topical, compared to vehicle control): dose dependent decreased | epidermal thickness, inflammatory infiltrate and epidermal oedema (histology) ([5]; semi-quantitative analysis): reduction | increase in ear thickness ([2]; mouse, in vivo, sc): prevented the increase | scratching activity ([2]; mouse, in vivo, sc): significantly reduced | number of writhing responses [6]: significant, dose dependent reduction | thermal hyperalgesia [7]: significant, dose dependent reduction | ear thickness (vasculitis): reduction | inflammatory infiltrate (histology) (vasculitis): reduced inflammatory infiltrate | number of petechiae (vasculitis): reduced number | scratch numbers [8]: lower | size of the rete ridges ([8]; compared to vehicle control): decreased size | weight loss (DSS-induced colitis; compared to vehicle control): decreased weight loss | reduction in colon size induced by DSS (DSS-induced colitis; mouse, in vivo): normalized

COC(=O)N1CCN(C(=O)Cc2ccc(Cl)c(F)c2)[C@@H]2[C@@H](N3CC[C@H](O)C3)CCC[C@@H]21 [Example 112]
activation at 1 µM (Human opiate κ receptors [1]): 93% | EC50 (Human opiate κ receptors [1]; GTPγS EC50 (nM)): < 10 nM | increase in ear thickness ([2]; mouse, in vivo): dose dependently prevented the increase

COC(=O)c1ccc(C(=O)N2CCN(C(=O)Cc3ccc(Cl)c(Cl)c3)[C@@H]3[C@@H](N4CCCC4)CCC[C@@H]32)cc1.Cl [Example 114]
% activation functional assay at 1 μM (Human opiate κ receptors [1]): 93% | EC50 (Human opiate κ receptors [1]; read-out: GTPγS EC50): 10 to 100 nM | increase in ear thickness [2, 10]: dose dependently prevented the increase | chloroquine-evoked scratching [3]: significantly inhibited

CNC(=O)C(=O)N1CCN(C(=O)Cc2ccc(Cl)c(Cl)c2)[C@@H]2[C@@H](N3CCCC3)CCC[C@@H]21.Cl [Example 118]
% activation functional assay at 1 μM (Human opiate κ receptors [1]): 104% | EC50 (Human opiate κ receptors [1]; read-out: GTPγS EC50): < 10 nM | increase in ear thickness [2, 10]: dose dependently prevented the increase

CS(=O)(=O)N1CCN(C(=O)Cc2ccc(Cl)c(F)c2)C2C(N3CCC(O)C3)CCCC21.Cl (stereo not shown) [Example 122]
% activation functional assay at 1 μM (Human opiate κ receptors [1]): 105% | EC50 (Human opiate κ receptors [1]; read-out: GTPγS EC50): < 10 nM | increase in ear thickness [2, 10]: dose dependently prevented the increase

CS(=O)(=O)N1CCN(C(=O)Cc2ccc(F)c(Cl)c2)C2C(N3CCC(O)C3)CCCC21.Cl (stereo not shown) [Example 125]
% activation functional assay at 1 μM (Human opiate κ receptors [1]): 99% | EC50 (Human opiate κ receptors [1]; read-out: GTPγS EC50): < 10 nM | increase in ear thickness [2, 10]: dose dependently prevented the increase | % binding at 100 nM (Human opiate κ receptors [9]): 80%

O=C(Cc1ccc(Cl)c(Cl)c1)N1CCN(S(=O)(=O)Cc2ccon2)[C@H]2CCC[C@H](N3CC[C@H](O)C3)[C@H]21 [Example 136]
% activation functional assay at 1 μM (Human opiate κ receptors [1]): 108% | EC50 (Human opiate κ receptors [1]; read-out: GTPγS EC50): < 10 nM | % binding at 100 nM (Human opiate κ receptors [9]): 96%

O=C(Cc1ccc(Cl)c(Cl)c1)N1CCN(S(=O)(=O)N2CCOCC2)[C@H]2CCC[C@H](N3CC[C@H](O)C3)[C@H]21 [Example 137]
% activation functional assay at 1 μM (Human opiate κ receptors [1]): 101% | EC50 (Human opiate κ receptors [1]; read-out: GTPγS EC50): < 10 nM | % binding at 100 nM (Human opiate κ receptors [9]): 71%

CNC(=O)C(=O)N1CCN(C(=O)Cc2ccc(Cl)c(Cl)c2)[C@@H]2[C@@H](N3CC[C@H](O)C3)CCC[C@@H]21 [Example 145]
% activation functional assay at 1 μM (Human opiate κ receptors [1]): 103% | EC50 (Human opiate κ receptors [1]; read-out: GTPγS EC50): 10 to 100 nM | increase in ear thickness [2, 10]: dose dependently prevented the increase | % binding at 100 nM (Human opiate κ receptors [9]): 62%

O=C(Cc1ccc(Cl)cc1)N1CCN(S(=O)(=O)Cc2ccon2)[C@H]2CCC[C@H](N3CC[C@H](O)C3)[C@H]21 [Example 146]
% activation functional assay at 1 μM (Human opiate κ receptors [1]): 103% | EC50 (Human opiate κ receptors [1]; read-out: GTPγS EC50): < 10 nM | % binding at 100 nM (Human opiate κ receptors [9]): 76%

O=C(Cc1ccc(Cl)c(F)c1)N1CCN(S(=O)(=O)Cc2ccon2)[C@H]2CCC[C@H](N3CC[C@H](O)C3)[C@H]21 [Example 147]
% activation functional assay at 1 μM (Human opiate κ receptors [1]): 105% | EC50 (Human opiate κ receptors [1]; read-out: GTPγS EC50): < 10 nM | % binding at 100 nM (Human opiate κ receptors [9]): 88%

O=C(Cc1ccc(F)c(Cl)c1)N1CCN(S(=O)(=O)Cc2ccon2)[C@H]2CCC[C@H](N3CC[C@H](O)C3)[C@H]21 [Example 148]
% activation functional assay at 1 μM (Human opiate κ receptors [1]): 93% | EC50 (Human opiate κ receptors [1]; read-out: GTPγS EC50): < 10 nM | % binding at 100 nM (Human opiate κ receptors [9]): 92%

O=C(Cc1ccc(F)c(F)c1)N1CCN(S(=O)(=O)Cc2ccon2)[C@H]2CCC[C@H](N3CC[C@H](O)C3)[C@H]21 [Example 149]
% activation functional assay at 1 μM (Human opiate κ receptors [1]): 97% | EC50 (Human opiate κ receptors [1]; read-out: GTPγS EC50): < 10 nM | % binding at 100 nM (Human opiate κ receptors [9]): 81%

COC(=O)N1CCN(C(=O)Cc2ccc(F)c(Cl)c2)[C@@H]2[C@@H](N3CC[C@H](F)C3)CCC[C@@H]21 [Example 150]
% activation functional assay at 1 μM (Human opiate κ receptors [1]): 92% | EC50 (Human opiate κ receptors [1]; read-out: GTPγS EC50): < 10 nM | % binding at 100 nM (Human opiate κ receptors [9]): 97%

Source: US20160122307A1, “PERHYDROQUINOXALINE DERIVATIVES” (DR. AUGUST WOLFF GMBH & CO. KG ARZNEIMITTEL, priority 2013, published 2016)
